Patent US10258634B2, “Ciclesonide for the treatment of airway disease in horses” (Boehringer Ingelheim Vetmedica GmbH, priority 2012, dated 2019)

Tests used:
[1] = system: RAO horses; experiment: 1st ciclesonide study: moldy hay challenge, serum cortisol; type: in vivo; conditions: any ciclesonide group (450/900/1800 μg/horse twice daily); any measured time point
[2] = system: RAO horses; experiment: 3rd ciclesonide study: moldy hay challenge, lung function variables; type: in vivo; conditions: ciclesonide 2700 μg twice daily / 3712.5 μg once daily morning / 3712.5 μg once daily evening, inhalation, nozzle B; after 14 days
Description: The horses are challenged by exposure to moldy hay to throughout the whole study.

[3] = Plasma level of ciclesonide and C21-C21-desisobutyrylciclesonide (HPLC-MS/MS), 2nd ciclesonide study; conditions: for concentration at 0 min / concentration at 10 min / concentration at 30 min / concentration at 1 h / concentration at 2 h / concentration at 4 h: horse, plasma, inhaled
[4] = system: RAO horses; experiment: 2nd ciclesonide study: moldy hay challenge, serum cortisol; type: in vivo; conditions: any ciclesonide group (1687.5/2700 A/2700 B μg twice daily); any measured time point
Description: (§1) The commercially available […]® is used in the study.

[5] = system: RAO horses; experiment: 2nd ciclesonide study: moldy hay challenge, lung function variables and weighted clinical score; type: in vivo
Description: as §1

[6] = system: RAO horses; experiment: 1st ciclesonide study: moldy hay challenge, lung function variables and breathing effort score; type: in vivo; conditions: after 14 days
[7] = system: RAO horses; experiment: Segmented neutrophil and lymphocyte counts in the 1st and 2nd ciclesonide studies; type: in vivo; conditions: for Lymphocytes / Segmented neutrophils: mean, n=8
Method: as §1
The segmented neutrophil counts and the lymphocyte counts are determined in the studies above: ciclesonide treatment versus dexamethasone treatment.
Concentration of segmented neutrophils and lymphocytes on day (D): D0, D14 and D21 in the treatment groups of dexamethasone and different doses of ciclesonide (n=8) (mean (SEM)

[8] = 1687.5 μg/horse, Ciclesonide concentration (plasma), ciclesonide 1687.5 μg (nozzle B) twice daily per inhalation, day 1
[9] = 1687.5 μg/horse, Ciclesonide concentration (plasma), ciclesonide 1687.5 μg (nozzle B) twice daily per inhalation, day 11
[10] = 2700 μg/horse, Ciclesonide concentration (plasma), ciclesonide 2700 μg A (nozzle A) twice daily per inhalation, day 1
[11] = 2700 μg/horse, Ciclesonide concentration (plasma), ciclesonide 2700 μg A (nozzle A) twice daily per inhalation, day 11
[12] = 2700 μg/horse, Ciclesonide concentration (plasma), ciclesonide 2700 μg B (nozzle B) twice daily per inhalation, day 1
[13] = 2700 μg/horse, Ciclesonide concentration (plasma), ciclesonide 2700 μg B (nozzle B) twice daily per inhalation, day 11
[14] = 450 μg ciclesonide/horse twice daily 14 days per inhalation (nozzle A), 1st study, D 0
[15] = 450 μg ciclesonide/horse twice daily 14 days per inhalation (nozzle A), 1st study, D 14
[16] = 450 μg ciclesonide/horse twice daily 14 days per inhalation (nozzle A), 1st study, D 21
[17] = 900 μg ciclesonide/horse twice daily 14 days per inhalation (nozzle A), 1st study, D 0
[18] = 900 μg ciclesonide/horse twice daily 14 days per inhalation (nozzle A), 1st study, D 14
[19] = 900 μg ciclesonide/horse twice daily 14 days per inhalation (nozzle A), 1st study, D 21
[20] = 1687.5 μg ciclesonide/horse twice daily 14 days per inhalation (nozzle B), 2nd study, D 0
[21] = 1687.5 μg ciclesonide/horse twice daily 14 days per inhalation (nozzle B), 2nd study, D 14
[22] = 1687.5 μg ciclesonide/horse twice daily 14 days per inhalation (nozzle B), 2nd study, D 21
[23] = 1800 μg ciclesonide/horse twice daily 14 days per inhalation (nozzle A), 1st study, D 0
[24] = 1800 μg ciclesonide/horse twice daily 14 days per inhalation (nozzle A), 1st study, D 14
[25] = 1800 μg ciclesonide/horse twice daily 14 days per inhalation (nozzle A), 1st study, D 21
[26] = 2700 μg ciclesonide A (nozzle A)/horse twice daily 14 days per inhalation, 2nd study, D 0
[27] = 2700 μg ciclesonide A (nozzle A)/horse twice daily 14 days per inhalation, 2nd study, D 14
[28] = 2700 μg ciclesonide A (nozzle A)/horse twice daily 14 days per inhalation, 2nd study, D 21
[29] = 2700 μg ciclesonide B (nozzle B)/horse twice daily 14 days per inhalation, 2nd study, D 0
[30] = 2700 μg ciclesonide B (nozzle B)/horse twice daily 14 days per inhalation, 2nd study, D 14
[31] = 2700 μg ciclesonide B (nozzle B)/horse twice daily 14 days per inhalation, 2nd study, D 21
[32] = 1st ciclesonide study, after administration of ciclesonide 450/900/1800 μg twice daily
[33] = 2nd ciclesonide study, after administration of ciclesonide 1687.5/2700 μg twice daily

CC(C)C(=O)OCC(=O)[C@@]12O[C@H](C3CCCCC3)O[C@@H]1C[C@H]1[C@@H]3CCC4=CC(=O)C=C[C@]4(C)[C@H]3[C@@H](O)C[C@@]12C [ciclesonide, (11β,16α)-16,17-[[(R)-Cyclohexylmethylene]bis(oxy)]-11-hydroxy-21-(2-methyl-1-oxopropoxy)pregna-1,4-diene-3,20-dione]
serum cortisol levels [1]: no significant reduction
lung function variables (ΔPL, RL, EL) compared to pretreatment values and to placebo group [2]: significantly reduced
Ciclesonide concentration (plasma) ([3]; ciclesonide 1687.5 μg (nozzle B) twice daily per inhalation, day 11, 2 h): <0.500 nmol/L
Ciclesonide concentration (plasma) ([3]; ciclesonide 1687.5 μg (nozzle B) twice daily per inhalation, day 11, 4 h): <0.500 nmol/L
concentration at 0 min [3, 8]: < 0.5 nM
concentration at 10 min [3, 8]: 0.87 nM
concentration at 30 min [3, 8]: < 0.5 nM
concentration at 1 h ([3]; 1687.5 μg/horse, Ciclesonide concentration (plasma), ciclesonide 1687.5 μg (nozzle B) twice daily per inhalation, day 1, 1 h): < 0.5 nM
concentration at 2 h ([3]; 1687.5 μg/horse, Ciclesonide concentration (plasma), ciclesonide 1687.5 μg (nozzle B) twice daily per inhalation, day 1, 2 h): < 0.5 nM
concentration at 4 h ([3]; 1687.5 μg/horse, Ciclesonide concentration (plasma), ciclesonide 1687.5 μg (nozzle B) twice daily per inhalation, day 1, 4 h): < 0.5 nM
concentration at 0 min [3, 9]: < 0.5 nM
concentration at 10 min [3, 9]: 0.97 nM
concentration at 30 min [3, 9]: < 0.5 nM
concentration at 1 h ([3]; 1687.5 μg/horse, Ciclesonide concentration (plasma), ciclesonide 1687.5 μg (nozzle B) twice daily per inhalation, day 11, 1 h): < 0.5 nM
concentration at 0 min [3, 10]: < 0.5 nM
concentration at 10 min [3, 10]: 1.19 nM
concentration at 30 min [3, 10]: 0.51 nM
concentration at 1 h ([3]; 2700 μg/horse, Ciclesonide concentration (plasma), ciclesonide 2700 μg A (nozzle A) twice daily per inhalation, day 1, 1 h): < 0.5 nM
concentration at 2 h ([3]; 2700 μg/horse, Ciclesonide concentration (plasma), ciclesonide 2700 μg A (nozzle A) twice daily per inhalation, day 1, 2 h): < 0.5 nM
concentration at 4 h ([3]; 2700 μg/horse, Ciclesonide concentration (plasma), ciclesonide 2700 μg A (nozzle A) twice daily per inhalation, day 1, 4 h): < 0.5 nM
concentration at 0 min [3, 11]: < 0.5 nM
concentration at 10 min [3, 11]: 1.02 nM
concentration at 30 min [3, 11]: 0.63 nM
concentration at 1 h ([3]; 2700 μg/horse, Ciclesonide concentration (plasma), ciclesonide 2700 μg A (nozzle A) twice daily per inhalation, day 11, 1 h): < 0.5 nM
concentration at 2 h ([3]; 2700 μg/horse, Ciclesonide concentration (plasma), ciclesonide 2700 μg A (nozzle A) twice daily per inhalation, day 11, 2 h): < 0.5 nM
concentration at 4 h ([3]; 2700 μg/horse, Ciclesonide concentration (plasma), ciclesonide 2700 μg A (nozzle A) twice daily per inhalation, day 11, 4 h): < 0.5 nM
concentration at 0 min [3, 12]: < 0.5 nM
concentration at 10 min [3, 12]: 1.16 nM
concentration at 30 min [3, 12]: 0.72 nM
concentration at 1 h ([3]; 2700 μg/horse, Ciclesonide concentration (plasma), ciclesonide 2700 μg B (nozzle B) twice daily per inhalation, day 1, 1 h): < 0.5 nM
concentration at 2 h ([3]; 2700 μg/horse, Ciclesonide concentration (plasma), ciclesonide 2700 μg B (nozzle B) twice daily per inhalation, day 1, 2 h): < 0.5 nM
concentration at 4 h ([3]; 2700 μg/horse, Ciclesonide concentration (plasma), ciclesonide 2700 μg B (nozzle B) twice daily per inhalation, day 1, 4 h): < 0.5 nM
concentration at 0 min [3, 13]: < 0.5 nM
concentration at 10 min [3, 13]: 1.38 nM
concentration at 30 min [3, 13]: 0.63 nM
concentration at 1 h ([3]; 2700 μg/horse, Ciclesonide concentration (plasma), ciclesonide 2700 μg B (nozzle B) twice daily per inhalation, day 11, 1 h): < 0.5 nM
concentration at 2 h ([3]; 2700 μg/horse, Ciclesonide concentration (plasma), ciclesonide 2700 μg B (nozzle B) twice daily per inhalation, day 11, 2 h): < 0.5 nM
concentration at 4 h ([3]; 2700 μg/horse, Ciclesonide concentration (plasma), ciclesonide 2700 μg B (nozzle B) twice daily per inhalation, day 11, 4 h): < 0.5 nM
concentration at 1 h ([3]; concentration of ciclesonide in plasma, samples taken 1 h after drug administration, below lower limit of quantification): < 0.5 nM
conversion of the prodrug into the effective molecule C21-C21-desisobutyrylciclesonide ([3]; in horses (example 5)): can be converted
serum cortisol levels [4]: no significant reduction
all lung function variables (ΔPL, RL, EL) compared to pretreatment values ([5]; all ciclesonide groups (1687.5 μg nozzle B/2700 μg nozzle A/2700 μg nozzle B twice daily), after 14 days, p=0.0009 to p<0.0001): significantly reduced
lung function variables, difference to dexamethasone group ([5]; all ciclesonide groups (1687.5/2700 A/2700 B μg twice daily), after 7 or 14 days): no significant difference
weighted clinical score compared to pretreatment values ([5]; all three ciclesonide groups (1687.5/2700 A/2700 B μg twice daily), after 14 days, p=0.0001 to p<0.0001): significantly reduced
weighted clinical score, difference to dexamethasone group ([5]; ciclesonide treatment groups (1687.5/2700 A/2700 B μg twice daily), after 14 days): no significant difference
ΔPL and EL compared to pretreatment values ([6]; ciclesonide 1800 μg/horse ex RESPIMAT twice daily per inhalation, p=0.0005 and p=0.0004): statistically significant reduction
ΔPL and EL, difference to dexamethasone group ([6]; ciclesonide 1800 μg/horse ex RESPIMAT twice daily): no significant difference
Lymphocytes [7, 14]: 1.96e+09 L⁻¹
Segmented neutrophils [7, 14]: 4.66e+09 L⁻¹
Lymphocytes [7, 15]: 1.97e+09 L⁻¹
Segmented neutrophils [7, 15]: 4.98e+09 L⁻¹
Lymphocytes [7, 16]: 2.17e+09 L⁻¹
Segmented neutrophils [7, 16]: 5.48e+09 L⁻¹
Lymphocytes [7, 17]: 1.85e+09 L⁻¹
Segmented neutrophils [7, 17]: 5.24e+09 L⁻¹
Lymphocytes [7, 18]: 2.03e+09 L⁻¹
Segmented neutrophils [7, 18]: 4.43e+09 L⁻¹
Lymphocytes [7, 19]: 1.94e+09 L⁻¹
Segmented neutrophils [7, 19]: 4.91e+09 L⁻¹
Lymphocytes [7, 20]: 1.93e+09 L⁻¹
Segmented neutrophils [7, 20]: 4.51e+09 L⁻¹
Lymphocytes [7, 21]: 1.94e+09 L⁻¹
Segmented neutrophils [7, 21]: 5.22e+09 L⁻¹
Lymphocytes [7, 22]: 2.04e+09 L⁻¹
Segmented neutrophils [7, 22]: 4.55e+09 L⁻¹
Lymphocytes [7, 23]: 1.95e+09 L⁻¹
Segmented neutrophils [7, 23]: 4.6e+09 L⁻¹
Lymphocytes [7, 24]: 1.96e+09 L⁻¹
Segmented neutrophils [7, 24]: 5.41e+09 L⁻¹
Lymphocytes [7, 25]: 2.06e+09 L⁻¹
Segmented neutrophils [7, 25]: 4.93e+09 L⁻¹
Lymphocytes [7, 26]: 2.04e+09 L⁻¹
Segmented neutrophils [7, 26]: 4.91e+09 L⁻¹
Lymphocytes [7, 27]: 2.14e+09 L⁻¹
Segmented neutrophils [7, 27]: 4.85e+09 L⁻¹
Lymphocytes [7, 28]: 2.01e+09 L⁻¹
Segmented neutrophils [7, 28]: 4.41e+09 L⁻¹
Lymphocytes [7, 29]: 1.8e+09 L⁻¹
Segmented neutrophils [7, 29]: 4.23e+09 L⁻¹
Lymphocytes [7, 30]: 1.74e+09 L⁻¹
Segmented neutrophils [7, 30]: 4.75e+09 L⁻¹
Lymphocytes [7, 31]: 2.01e+09 L⁻¹
Segmented neutrophils [7, 31]: 4.84e+09 L⁻¹
counts of lymphocytes [7, 32]: no change
counts of segmented neutrophils [7, 32]: no or minor increase
counts of lymphocytes [7, 33]: no change
counts of segmented neutrophils [7, 33]: no or minor increase
alteration in the immune system measured by neutrophilia and lymphopenia ([7]; treatment for two weeks with different dose levels of ciclesonide): no alteration is observed
